Laboratory results reported in patent US20080308744A1 (Beth Israel Deaconess Medical Center, priority 2003, published 2008).

Experiments:
[1] = Quantum yield measurements; format: physicochemical; settings: compared to QD
[2] = Fluorescence spectrometry: relative fluorescent yield of 800 nm contrast agents; format: physicochemical
Method: The performance of these agents in rat and pig model systems of SLN mapping for the skin, gastrointestinal tract and lung were also quantitated.
All of the samples were diluted with PBS, pH7.8, or with 100% FBS according to absorbance at λmax using 1-cm path length quartz spectrometer cell, and excited at 770 nm. Fluorescence was measured by calculating the area under the curve of the intensity from 785 nm to 950 nm subtracting the fluorescence of control PBS, pH 7.8.

[3] = in DMSO; cited from earlier work
[4] = Behaviour of the free dye in blood (description); settings: small molecule form

| Structure (SMILES) | quantum yield ([1]; in FBS) | quantum yield ([1]; in PBS) | relative per molecule fluorescent yield to QDs ([2]; in 100% fetal bovine serum) | relative per molecule fluorescent yield to QDs ([2]; in phosphate-buffered saline) | quantum yield (control) [3] [%] | in vivo early half-life | solubility in blood [4] |
| --- | --- | --- | --- | --- | --- | --- | --- |
| CC1(C)C(/C=C/C2=C(Oc3ccc(S(=O)(=O)O)cc3)C(=C/C=C3/N(CCCCS(=O)(=O)O)c4ccc(S(=O)(=O)[O-])cc4C3(C)C)/CCC2)=[N+](CCCCCC(=O)O)c2ccc(S(=O)(=O)O)cc21 [800CW] | rather higher | same as that of QD | 1.0 | 0.4 |  |  |  |
| CC1(C)C(/C=C/C=C/C=C/C=C2\N(CCCCS(=O)(=O)O)c3ccc4ccccc4c3C2(C)C)=[N+](CCCCS(=O)(=O)[O-])c2ccc3ccccc3c21 [ICG, indocyanine green] |  |  | 0.4 | 0.1 | 13 | shorter half-life | somewhat less soluble in blood |
